Test results reported in US20230045421A1 (priority 2018, published 2023).
Where two headings read alike, the source gives them in different places.

Test system: HBV rcDNA
Experiment: HepDE19 assay with bDNA quantitation of HBV rcDNA
Format: cell-based, hepatitis B virus
Method in brief: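 Compounds, top concentration 25 μM in 8-point duplicate series, were applied to Tet-free HepDE19 cultures for 7 days. Branched-DNA quantitation of HBV rcDNA against untreated wells gave EC50 and EC90 by 4-parameter fit. Viability (CC50) came from ATP luminescence on parallel plates incubated 4 days.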

[1] = HepDE19 assay, inhibition of formation of relaxed circular DNA (rcDNA), bDNA quantitation, read-out: DE-19bDNA EC50
[2] = Hepatitis B virus, HepDE19, HepDE19 assay, inhibition of formation of rcDNA, read-out: DE-19bDNA EC50

Row | SMILES | EC50 [1] [µM] | EC50 [2] [µM] | other results
1 | CC(c1c[nH]c(=O)c2c(F)c(F)ccc12)N(C)C(=O)NCc1ccc(F)cc1 (single isomer, unassigned) [Compound 491, 1-(1-(7,8-Difluoro-1-oxo-1,2-dihydroisoquinolin-4-yl)ethyl)-3-(4-fluorobenzyl)-1-methylurea] | 21 |  | 
2 | CC(c1c[nH]c(=O)c2c(F)c(F)ccc12)N(C)C(=O)NCc1ccc(F)cc1 (single isomer, unassigned) [Compound 492, 1-(1-(7,8-Difluoro-1-oxo-1,2-dihydroisoquinolin-4-yl)ethyl)-3-(4-fluorobenzyl)-1-methylurea] | 0.84 |  | 
3 | CC(c1c[nH]c(=O)c2c(F)c(F)ccc12)N(C)C(=O)NCc1cc(F)c(F)c(F)c1 (single isomer, unassigned) [Compound 493, 1-(1-(7,8-Difluoro-1-oxo-1,2-dihydroisoquinolin-4-yl)ethyl)-1-methyl-3-(3,4,5-trifluorobenzyl)urea] | 15 |  | 
4 | CC(c1c[nH]c(=O)c2c(F)c(F)ccc12)N(C)C(=O)NCc1cc(F)c(F)c(F)c1 (single isomer, unassigned) [Compound 494, 1-(1-(7,8-Difluoro-1-oxo-1,2-dihydroisoquinolin-4-yl)ethyl)-1-methyl-3-(3,4,5-trifluorobenzyl)urea] | 0.89 |  | 
5 | CC(c1c[nH]c(=O)c2c(F)c(F)ccc12)N(C)C(=O)NCc1ccc(F)c(Cl)c1 (single isomer, unassigned) [Compound 496, 3-(3-Chloro-4-fluorobenzyl)-1-(1-(7,8-difluoro-1-oxo-1,2-dihydroisoquinolin-4-yl)ethyl)-1-methylurea] | 7.7 |  | 
6 | CC(c1c[nH]c(=O)c2c(F)c(F)ccc12)N(C)C(=O)NCc1ccc(F)c(Cl)c1 (single isomer, unassigned) [Compound 497, 3-(3-Chloro-4-fluorobenzyl)-1-(1-(7,8-difluoro-1-oxo-1,2-dihydroisoquinolin-4-yl)ethyl)-1-methylurea] | 0.26 |  | 
7 | CC(c1c[nH]c(=O)c2c(F)c(F)ccc12)N(C)C(=O)Nc1ccc2cc[nH]c2c1 (single isomer, unassigned) [Compound 498, 1-(1-(7,8-Difluoro-1-oxo-1,2-dihydroisoquinolin-4-yl)ethyl)-3-(1H-indol-6-yl)-1-methylurea] | 11 |  | 
8 | CC(c1c[nH]c(=O)c2c(F)c(F)ccc12)N(C)C(=O)Nc1ccc2cc[nH]c2c1 (single isomer, unassigned) [Compound 499, 1-(1-(7,8-Difluoro-1-oxo-1,2-dihydroisoquinolin-4-yl)ethyl)-3-(1H-indol-6-yl)-1-methylurea] | 0.3 |  | 
9 | CC(NC(=O)Nc1ccc(F)c(Cl)c1)c1c[nH]c(=O)c2c(F)c(F)ccc12 (single isomer, unassigned) [Compound 500, 1-(3-Chloro-4-fluorophenyl)-3-(1-(7,8-difluoro-1-oxo-1,2-dihydroisoquinolin-4-yl)ethyl)urea] |  |  | EC50 (Hepatitis B virus, HepDE19, read-out: DE-19bDNA EC50 (μM), HepDE19 assay, inhibition of formation of relaxed circular DNA (rcDNA), bDNA quantitation): 3 µM
10 | CC(c1c[nH]c(=O)c2cc(F)c(F)cc12)N(C)C(=O)Nc1ccc(F)c(C(F)F)c1 (single isomer, unassigned) [Compound 501, 1-(1-(6,7-Difluoro-1-oxo-1,2-dihydroisoquinolin-4-yl)ethyl)-3-(3-(difluoromethyl)-4-fluorophenyl)-1-methylurea] | 0.73 |  | 
11 | CC(c1c[nH]c(=O)c2cc(F)c(F)cc12)N(C)C(=O)Nc1ccc(F)c(C(F)F)c1 (single isomer, unassigned) [Compound 502, 1-(1-(6,7-Difluoro-1-oxo-1,2-dihydroisoquinolin-4-yl)ethyl)-3-(3-(difluoromethyl)-4-fluorophenyl)-1-methylurea] | 0.017 |  | 
12 | CC(c1c[nH]c(=O)c2c(F)c(F)ccc12)N(C)C(=O)Nc1ccc(F)c(C(F)F)c1 (single isomer, unassigned) [Compound 503, 1-(1-(7,8-Difluoro-1-oxo-1,2-dihydroisoquinolin-4-yl)ethyl)-3-(3-(difluoromethyl)-4-fluorophenyl)-1-methylurea] | 0.86 |  | 
13 | CC(c1c[nH]c(=O)c2c(F)c(F)ccc12)N(C)C(=O)Nc1ccc(F)c(C(F)F)c1 (single isomer, unassigned) [Compound 504, 1-(1-(7,8-Difluoro-1-oxo-1,2-dihydroisoquinolin-4-yl)ethyl)-3-(3-(difluoromethyl)-4-fluorophenyl)-1-methylurea] | 0.015 |  | 
14 | CN(Cc1c[nH]c(=O)c2ccccc12)C(=O)Nc1ccc(F)c(Cl)c1 [Compound 1, 3-(3-Chloro-4-fluorophenyl)-1-methyl-1-((1-oxo-1,2-dihydroisoquinolin-4-yl)methyl)urea] |  | 0.47 | 
15 | COc1ncc(CN(C)C(=O)Nc2ccc(F)c(Cl)c2)c2ccccc12 [Compound 2, 3-(3-Chloro-4-fluorophenyl)-1-((1-methoxyisoquinolin-4-yl)methyl)-1-methylurea] |  | 2 | 
16 | COc1ncc(CN(C)C(=O)Nc2ccc(F)c(C)c2)c2ccccc12 [Compound 3, 3-(4-Fluoro-3-methylphenyl)-1-((1-methoxyisoquinolin-4-yl)methyl)-1-methylurea] |  | 1.1 | 
17 | Cc1cc(NC(=O)NCc2c[nH]c(=O)c3ccccc23)ccc1F [Compound 4, 1-(4-Fluoro-3-methylphenyl)-3-((1-oxo-1,2-dihydroisoquinolin-4-yl)methyl)urea] |  | 4.8 | 
18 | Cc1cc(NC(=O)N(C)Cc2c[nH]c(=O)c3ccccc23)ccc1F [Compound 5, 3-(4-Fluoro-3-methylphenyl)-1-methyl-1-((1-oxo-1,2-dihydroisoquinolin-4-yl)methyl)urea] |  | 0.49 | 

Row | SMILES | EC50 [1] [µM] | EC50 [2] [µM] | other results
19 | COc1ncc(CNC(=O)Nc2ccc(F)c(Cl)c2)c2ccccc12 [Compound 6, 1-(3-Chloro-4-fluorophenyl)-3-((1-methoxyisoquinolin-4-yl)methyl)urea] |  | 9 | 
20 | COc1ncc(CNC(=O)Nc2ccc(F)c(C)c2)c2ccccc12 [Compound 7, 1-(4-Fluoro-3-methylphenyl)-3-((1-methoxyisoquinolin-4-yl)methyl)urea] |  | 12 | 
21 | O=C(NCc1c[nH]c(=O)c2ccccc12)Nc1ccc(F)c(Cl)c1 [Compound 8, 1-(3-Chloro-4-fluorophenyl)-3-((1-oxo-1,2-dihydroisoquinolin-4-yl)methyl)urea] |  | 6.8 | 
22 | CCN(Cc1c[nH]c(=O)c2ccccc12)C(=O)Nc1ccc(F)c(Cl)c1 [Compound 9, 3-(3-Chloro-4-fluorophenyl)-1-ethyl-1-((1-oxo-1,2-dihydroisoquinolin-4-yl)methyl)urea] |  | 0.16 | 
23 | C[C@@H](c1c[nH]c(=O)c2ccccc12)N(C)C(=O)Nc1ccc(F)c(Cl)c1 [Compound 13, 3-(3-Chloro-4-fluorophenyl)-1-methyl-1-(1-(1-oxo-1,2-dihydroisoquinolin-4-yl)ethyl)urea] |  | 4.7 | 
24 | C[C@H](c1c[nH]c(=O)c2ccccc12)N(C)C(=O)Nc1ccc(F)c(Cl)c1 [Compound 14, (R)-3-(3-chloro-4-fluorophenyl)-1-methyl-1-(1-(1-oxo-1,2-dihydroisoquinolin-4-yl)ethyl)urea] |  | 0.04 | 
25 | CCN(Cc1cnc(OC)c2ccccc12)C(=O)Nc1ccc(F)c(Cl)c1 [Compound 15, 3-(3-Chloro-4-fluorophenyl)-1-ethyl-1-((1-methoxyisoquinolin-4-yl)methyl)urea] |  | 1.2 | 
26 | CCN(Cc1cncc2ccccc12)C(=O)Nc1ccc(F)c(Cl)c1 [Compound 16, 3-(3-Chloro-4-fluorophenyl)-1-ethyl-1-(isoquinolin-4-ylmethyl)urea] |  | 1.7 | 
27 | CCOc1ncc(CN(CC)C(=O)Nc2ccc(F)c(Cl)c2)c2ccccc12 [Compound 17, 3-(3-chloro-4-fluorophenyl)-1-((1-ethoxyisoquinolin-4-yl)methyl)-1-ethylurea] |  | 1.6 | 
28 | CCN(Cc1cn(C)c(=O)c2ccccc12)C(=O)Nc1ccc(F)c(Cl)c1 [Compound 18, 3-(3-Chloro-4-fluorophenyl)-1-ethyl-1-((2-methyl-1-oxo-1,2-dihydroisoquinolin-4-yl)methyl)urea] |  | 0.26 | 
29 | COc1ncc(CN(C(=O)Nc2ccc(F)c(Cl)c2)C(C)C)c2ccccc12 [Compound 19, 3-(3-Chloro-4-fluorophenyl)-1-isopropyl-1-((1-methoxyisoquinolin-4-yl)methyl)urea] |  | 2.1 | 
30 | CCCN(Cc1cnc(OC)c2ccccc12)C(=O)Nc1ccc(F)c(Cl)c1 [Compound 20, 3-(3-Chloro-4-fluorophenyl)-1-((1-methoxyisoquinolin-4-yl)methyl)-1-propylurea] |  | 0.44 | 
31 | COc1ncc(CN(CCO)C(=O)Nc2ccc(F)c(Cl)c2)c2ccccc12 [Compound 21, 3-(3-Chloro-4-fluorophenyl)-1-(2-hydroxyethyl)-1-((1-methoxyisoquinolin-4-yl)methyl)urea] |  | 18 | 
32 | CC(C)N(Cc1c[nH]c(=O)c2ccccc12)C(=O)Nc1ccc(F)c(Cl)c1 [Compound 26, 3-(3-Chloro-4-fluorophenyl)-1-isopropyl-1-((1-oxo-1,2-dihydroisoquinolin-4-yl)methyl)urea] |  | 0.43 | 
33 | O=C(Nc1ccc(F)c(Cl)c1)N(CCO)Cc1c[nH]c(=O)c2ccccc12 [Compound 27, 3-(3-Chloro-4-fluorophenyl)-1-(2-hydroxyethyl)-1-((1-oxo-1,2-dihydroisoquinolin-4-yl)methyl)urea] |  | 1 | 
34 | CCCN(Cc1c[nH]c(=O)c2ccccc12)C(=O)Nc1ccc(F)c(Cl)c1 [Compound 28, 3-(3-Chloro-4-fluorophenyl)-1-((1-oxo-1,2-dihydroisoquinolin-4-yl)methyl)-1-propylurea] |  | 0.06 | 
35 | CCN(Cc1cnc(OCCO)c2ccccc12)C(=O)Nc1ccc(F)c(Cl)c1 [Compound 29, 3-(3-Chloro-4-fluorophenyl)-1-ethyl-1-((1-(2-hydroxyethoxy)isoquinolin-4-yl)methyl)urea] |  | 4.2 | 
